# Patent US9932584B2, “Interfering RNA delivery system and uses thereof” (Arrowhead Pharmaceuticals Inc., priority 2012, dated 2018)
# System: PPIB mRNA
# Experiment: siRNA delivery with CPP-10H peptides, PPIB mRNA by Taqman qRT-PCR
# Assay type: cell-based
# Conditions: GTM-3 cells; for suppression of PPIB mRNA expression: PPIB siRNA complexed with peptide 20:1 peptide:siRNA, 1 hour, 48 hour post-transfection, normalized to β-actin mRNA, relative to non-treated cells
# Protocol: The ability of 10 histidine residues (10H) to enhance endosomal release of siRNAs delivered using certain cell penetrating peptides (CPPs) was examined. […] (SEQ ID NO: 12). Peptidyl-prolyl cis-trans isomerase B (PPIB) siRNA and Non-Targeting siRNA #2 (NTC2) (Thermo Fisher Scientific, Dharmacon Products, Lafayette, Colo.) were complexed with TAT-10H, CTP-10H, and YM3-10H peptides (Abgent, Inc., San Diego, Calif.) at a 20:1 peptide: siRNA molar ratio for 30 minutes at room temperature, and applied to GTM-3 cells (Pang, I. H., et al., 1994 Curr Eye Res. 13:51-63) at a final siRNA concentration of 100-800 nM for 1 hour. PPIB mRNA and β-actin mRNA levels were determined by Taqman qRT-PCR assay (Applied Biosystems, Austin, Tex.) at 48 hour post-transfection (FIG. 1). Data were normalized to β-actin mRNA, and expressed relative to PPIB mRNA level in non-treated cells.
sequence,measurement,setting,value
CHHHHHGGRRARRRRRRHHGHHC (CHHHHHGGRRARRRRRRHHHHHC) [CTP-10H],non-specific silencing of PPIB mRNA expression with NTC2 control,"NTC2 non-targeting siRNA delivered with peptide, 800 nM siRNA, possibly due to a cytotoxic effect",significant silencing
same,suppression of PPIB mRNA expression,100 nM siRNA,~80%
same,suppression of PPIB mRNA expression,200 nM siRNA,≥ 90%
same,suppression of PPIB mRNA expression,800 nM siRNA,≥ 90%
